How the values were obtained:
[1] = biological target: T1, Protein farnesyltransferase (Bos taurus, UniProt P29702+P49355); assay: Inhibition of transfer of [3H]FPP to biotin K-ras peptide (KKSKTKCVIM) catalyzed by bovine FTase; format: protein-complex assay
[2] = Half life in dog at the single oral dose of 1 mg/kg; format: ADME, organism-based, Canis lupus familiaris; set-up: dose 1 mg/kg, route oral; settings: in vivo
[3] = test system: NIH3T3; assay: Concentration needed to reduce 50% of farnesylation in NIH3T3 H-ras cell line; format: functional, cell-based; settings: Mus musculus
[4] = Pharmacokinetic (PK) property (Tmax) was determined in dog at the single dose of 1 mg/kg; format: ADME, organism-based, Canis lupus familiaris; set-up: dose 1 mg/kg; settings: in vivo
[5] = Pharmacokinetic (PK) property (Cmax) was determined in dog at the single dose of 1 mg/kg; format: ADME, organism-based, Canis lupus familiaris; set-up: dose 1 mg/kg; settings: in vivo
[6] = Pharmacokinetic (PK) property (AUC) was determined in dog at the single oral dose of 1 mg/kg; format: ADME, organism-based, Canis lupus familiaris; set-up: dose 1 mg/kg, route oral; settings: in vivo
[7] = biological target: T1, Protein farnesyltransferase; assay: Inhibition of [3H]FPP transfer to biotin K-ras peptide (KKSKTKCVIM) by bovine FTase; format: protein-complex assay
[8] = biological target: Geranylgeranyl transferase type I (Bos taurus, UniProt P29702+Q5EAD5); assay: Inhibition of [3H]FPP transfer to biotin K-ras peptide (KKSKTKCVLL) catalyzed by bovine GGTase-I
[9] = Oral bioavailability in monkey; settings: cercopithecidae, in vivo
[10] = in vivo; settings: dog, po, 5 mg/kg
Description: Oral bioavailability in dog (dose 5 mg/kg)

IC50 [1] [nM]	SMILES	EC50 [3] [nM]	further results
25	Cn1cncc1C(OCc1ccc(C#N)c(-c2ccc(Cl)cc2)n1)c1ccc(C#N)cc1 (stereo unspecified)		
44	Cn1cncc1C(OCc1ccc(C#N)nc1N1CCN(C(=O)OC(C)(C)C)CC1)c1ccc(C#N)cc1 (stereo unspecified)		
8.2	Cn1cncc1C(OCc1ccc(C#N)c(-c2ccc3ccccc3c2)n1)c1ccc(C#N)cc1 (stereo unspecified)		
0.18	Cn1cncc1C(OCc1ccc(C#N)nc1-c1ccc2c(c1)OC(F)(F)O2)c1ccc(C#N)cc1 (stereo unspecified)	1.2	half-life [2]: 7.6 h; Tmax [4]: 1 h; Cmax [5]: 260 ng/mL; AUC [6]: 2800 ng·h/mL
1.7	Cn1cncc1C(OCc1ccc(C#N)cc1-c1cccc2ccccc12)c1ccc(C#N)nc1 (stereo unspecified)	46	
0.98	CC(=O)N1CCN(c2nc(COC(c3ccc(C#N)cc3)c3cncn3C)c(-c3cccc(Cl)c3)cc2C#N)CC1 (stereo unspecified)	0.4	
0.51	Cn1cncc1C(OCc1nc(N2CCC(O)CC2)c(C#N)cc1-c1cccc(Cl)c1)c1ccc(C#N)cc1 (stereo unspecified)	3.6	
0.4	Cn1cncc1C(OCc1ccc(C#N)cc1-c1cccc(OC(F)(F)F)c1)c1ccc(C#N)nc1 (stereo unspecified)	24	
1.9	Cn1cncc1C(OCc1ccc(C#N)nc1N1CCOCC1)c1ccc(C#N)cc1 (stereo unspecified)	88	
2	Cn1cncc1C(OCc1ccc(C#N)cc1-c1cc(F)cc(F)c1)c1ccc(C#N)nc1 (stereo unspecified)	25	
	Cn1cncc1C(OCc1nc(N2CCN(C(=O)OC(C)(C)C)CC2)c(C#N)cc1-c1cccc(Cl)c1)c1ccc(C#N)cc1 (stereo unspecified)	4.5	
0.25	Cn1cncc1C(OCc1nc(N2CCOCC2)c(C#N)cc1-c1cccc(Cl)c1)c1ccc(C#N)cc1 (stereo unspecified)	1.2	
0.45	Cn1cncc1C(OCc1ccc(C#N)nc1-c1cc(Cl)cc(Cl)c1)c1ccc(C#N)cc1 (stereo unspecified)	6	
0.64	Cn1cncc1C(OCc1ccc(C#N)cc1-c1cc(Cl)cc(Cl)c1)c1ccc(C#N)nc1 (stereo unspecified)	3.5	
68	Cn1cncc1C(OCc1ccc(C#N)c(-c2cccc(C#N)c2)n1)c1ccc(C#N)cc1 (stereo unspecified)		
0.88	COc1cccc(-c2cc(C#N)ccc2COC(c2ccc(C#N)nc2)c2cncn2C)c1 (stereo unspecified)	20	
	Cn1cncc1C(OCc1ccc(C#N)cc1)c1ccc(C#N)c(-c2cccc3ccccc23)c1 (stereo unspecified)	110	IC50 [7]: 0.2 nM; IC50 [8]: 18 nM
3.9	Cn1cncc1C(OCc1ccc(C#N)nc1-c1ccccc1)c1ccc(C#N)cc1 (stereo unspecified)	19	

IC50 [1] [nM]	SMILES	EC50 [3] [nM]	further results
58	CN1CCN(c2nc(COC(c3ccc(C#N)cc3)c3cncn3C)ccc2C#N)CC1 (stereo unspecified)		
0.57	CN1CCN(c2nc(COC(c3ccc(C#N)cc3)c3cncn3C)c(-c3cccc(Cl)c3)cc2C#N)CC1 (stereo unspecified)	2	
0.51	Cn1cncc1C(OCc1ccc(C#N)nc1-c1ccc(OC(F)(F)F)cc1)c1ccc(C#N)cc1 (stereo unspecified)	4	
0.43	Cn1cncc1C(OCc1ccc(C#N)cn1)c1ccc(C#N)c(-c2cccc3ccccc23)c1 (stereo unspecified)	6	
0.82	Cn1cncc1C(OCc1ccc(C#N)nc1-c1cccc(Cl)c1)c1ccc(C#N)cc1 (stereo unspecified)	1.8	
12	Cn1cncc1C(OCc1ccc(C#N)c(-c2cccc(Cl)c2)n1)c1ccc(C#N)cc1 (stereo unspecified)		
0.18	Cn1cncc1C(OCc1ccc(C#N)nc1-c1cccc(OC(F)(F)F)c1)c1ccc(C#N)cc1 (stereo unspecified)	2	
0.73	Cn1cncc1C(OCc1nc(N2CCC(C(N)=O)CC2)c(C#N)cc1-c1cccc(Cl)c1)c1ccc(C#N)cc1 (stereo unspecified)	1.5	
0.71	Cn1cncc1C(OCc1ccc(C#N)nc1-c1cc(F)cc(F)c1)c1ccc(C#N)cc1 (stereo unspecified)	2.2	
0.62	COc1cccc(-c2cc(C#N)ccc2COC(c2ccc(C#N)cc2)c2cncn2C)c1 (stereo unspecified)	1.2	
0.16	Cn1cncc1C(OCc1ccc(C#N)nc1-c1ccc2ccccc2c1)c1ccc(C#N)cc1 (stereo unspecified)	7.4	
	Cn1cncc1C(OCc1nc(Cl)c(C#N)cc1-c1cccc(Cl)c1)c1ccc(C#N)cc1 (stereo unspecified)	29	
2	Cn1cncc1C(OCc1ccc(C#N)cc1)c1ccc(C#N)c(-c2cccc3cccnc23)c1 (stereo unspecified)	3.7	bioavailability [9]: 92%; bioavailability [10]: 53%
1	Cn1cncc1C(OCc1ccc(C#N)cc1-c1ccc(F)c(Cl)c1)c1ccc(C#N)nc1 (stereo unspecified)	46	
0.84	Cn1cncc1C(OCc1ccc(C#N)cc1-c1ccc2c(c1)OCO2)c1ccc(C#N)nc1 (stereo unspecified)	3.5	
0.92	Cn1cncc1C(OCc1ncc(C#N)cc1-c1cccc(Cl)c1)c1ccc(C#N)cc1 (stereo unspecified)	10	
0.75	Cn1cncc1C(OCc1ccc(C#N)cc1-c1cccc(Cl)c1)c1ccc(C#N)nc1 (stereo unspecified)	2.1	
1.8	Cn1cncc1C(OCc1cnc(C#N)cc1-c1cccc(Cl)c1)c1ccc(C#N)cc1 (stereo unspecified)	17	

— ChEMBL document CHEMBL1136432, “Discovery of potent imidazole and cyanophenyl containing farnesyltransferase inhibitors with improved oral bioavailability” (Bioorg Med Chem Lett, 2003)
